Test results as given in ChEMBL document CHEMBL1201862, “PubChem BioAssay data set” (2004).
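Step 1: Grow cells in 96-well plates. Step 2: Expose to compound for 48 hours at 5 concentrations. Step 3: Interpolate endpoints linearly; if unreached, use highest concentration. GI50 marks 50% less growth.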 Activity calls are given as the source filed them. Cut-off read from the data, not from the text of the source: active = GI50 up to about 1.1 µM and inactive = higher.

Columns and labels:
Assay in all cases: NCI-60 cell line screen, 48 h
786-0 = test system: 786-0
ACHN = test system: ACHN
HL-60 = test system: HL-60
HOP-62 = test system: HOP-62
HOP-92 = test system: HOP-92
HT-29 = test system: HT-29
K562 = test system: K562
LXFL 529 = test system: LXFL 529
MDA-N = test system: MDA-N
Malme-3M = test system: Malme-3M
NCI-H226 = test system: NCI-H226
OVCAR-4 = test system: OVCAR-4
OVCAR-5 = test system: OVCAR-5
PC-3 = test system: PC-3
SF-268 = test system: SF-268
SF-295 = test system: SF-295
SK-MEL-5 = test system: SK-MEL-5
T47D = test system: T47D
TK-10 = test system: TK-10
U-251 = test system: U-251

## COc1ncnc2c(NC3OC(CO)C(O)C3O)ncnc12 (stereo unspecified)
786-0
  GI50: 0.537 µM (active)
ACHN
  GI50: 0.201 µM (active)
HL-60
  GI50: 0.0414 µM (active)
HOP-62
  GI50: 0.408 µM (active)
HOP-92
  GI50: 0.0156 µM (active)
HT-29
  GI50: 0.0685 µM (active)
K562
  GI50: 0.0306 µM (active)
LXFL 529
  GI50: 0.505 µM (active)
MDA-N
  GI50: 0.274 µM (active)
Malme-3M
  GI50: 2.74 µM (inactive)
NCI-H226
  GI50: 0.335 µM (active)
OVCAR-4
  GI50: 0.713 µM (active)
OVCAR-5
  GI50: 0.569 µM (active)
PC-3
  GI50: 0.493 µM (active)
SF-268
  GI50: 0.506 µM (active)
SF-295
  GI50: 0.579 µM (active)
SK-MEL-5
  GI50: 1.19 µM (inactive)
T47D
  GI50: 0.708 µM (active)
TK-10
  GI50: 0.298 µM (active)
U-251
  GI50: 2.51 µM (inactive)

## Cc1c2ccccc2cc2ccc3oc([N+](=O)[O-])cc3c12
786-0
  GI50: > 100 µM (inactive)
ACHN
  GI50: 4.73 µM (inactive)
HL-60
  GI50: 3.93 µM (inactive)
HOP-62
  GI50: > 100 µM (inactive)
HOP-92
  GI50: > 100 µM (inactive)
HT-29
  GI50: > 100 µM (inactive)
K562
  GI50: > 100 µM (inactive)
LXFL 529
  GI50: > 100 µM (inactive)
Malme-3M
  GI50: > 100 µM (inactive)
OVCAR-4
  GI50: > 100 µM (inactive)
OVCAR-5
  GI50: > 100 µM (inactive)
SF-268
  GI50: > 100 µM (inactive)
SF-295
  GI50: > 100 µM (inactive)
SK-MEL-5
  GI50: 3.18 µM (inactive)
TK-10
  GI50: > 100 µM (inactive)
U-251
  GI50: > 100 µM (inactive)

## CC(C)=CCC/C(C)=C/Cc1c(O)c(C)cc2c1[nH]c1cc(O)ccc12
786-0
  GI50: > 25 µM (inactive)
ACHN
  GI50: > 25 µM (inactive)
HL-60
  GI50: > 25 µM (inactive)
HOP-62
  GI50: > 25 µM (inactive)
HOP-92
  GI50: > 25 µM (inactive)
HT-29
  GI50: > 25 µM (inactive)
K562
  GI50: > 25 µM (inactive)
LXFL 529
  GI50: > 25 µM (inactive)
Malme-3M
  GI50: > 25 µM (inactive)
NCI-H226
  GI50: > 25 µM (inactive)
OVCAR-4
  GI50: > 25 µM (inactive)
OVCAR-5
  GI50: > 25 µM (inactive)
SF-268
  GI50: > 25 µM (inactive)
SK-MEL-5
  GI50: > 25 µM (inactive)
TK-10
  GI50: > 25 µM (inactive)
U-251
  GI50: > 25 µM (inactive)

## O/N=C1\CCCCC1C(NO)c1ccccc1 (stereo unspecified)
786-0
  GI50: > 100 µM (inactive)
ACHN
  GI50: > 100 µM (inactive)
HL-60
  GI50: 57.7 µM (inactive)
HOP-62
  GI50: > 100 µM (inactive)
HOP-92
  GI50: 42.7 µM (inactive)
HT-29
  GI50: > 100 µM (inactive)
K562
  GI50: > 100 µM (inactive)
LXFL 529
  GI50: > 100 µM (inactive)
Malme-3M
  GI50: > 100 µM (inactive)
OVCAR-4
  GI50: > 100 µM (inactive)
OVCAR-5
  GI50: > 100 µM (inactive)
SF-268
  GI50: 98.9 µM (inactive)
SF-295
  GI50: > 100 µM (inactive)
TK-10
  GI50: > 100 µM (inactive)
U-251
  GI50: > 100 µM (inactive)

## CC1(C)CC(=O)C(/C(=N/NC(=S)NN)C(=O)Nc2nc3ccc([N+](=O)[O-])cc3s2)C(=O)C1
786-0
  GI50: > 100 µM (inactive)
ACHN
  GI50: > 100 µM (inactive)
HL-60
  GI50: > 100 µM (inactive)
HOP-62
  GI50: > 100 µM (inactive)
HOP-92
  GI50: > 100 µM (inactive)
HT-29
  GI50: > 100 µM (inactive)
K562
  GI50: 62.1 µM (inactive)
LXFL 529
  GI50: > 100 µM (inactive)
Malme-3M
  GI50: > 100 µM (inactive)
NCI-H226
  GI50: 55.5 µM (inactive)
OVCAR-4
  GI50: > 100 µM (inactive)
OVCAR-5
  GI50: > 100 µM (inactive)
SF-268
  GI50: > 100 µM (inactive)
SF-295
  GI50: > 100 µM (inactive)
SK-MEL-5
  GI50: > 100 µM (inactive)
TK-10
  GI50: > 100 µM (inactive)
U-251
  GI50: > 100 µM (inactive)

## Cc1nc(=O)n2c(C)n[nH]c2c1C(=O)O
786-0
  GI50: > 100 µM (inactive)
ACHN
  GI50: > 100 µM (inactive)
HL-60
  GI50: > 100 µM (inactive)
HOP-62
  GI50: > 100 µM (inactive)
HOP-92
  GI50: > 100 µM (inactive)
HT-29
  GI50: > 100 µM (inactive)
K562
  GI50: > 100 µM (inactive)
LXFL 529
  GI50: > 100 µM (inactive)
Malme-3M
  GI50: > 100 µM (inactive)
NCI-H226
  GI50: > 100 µM (inactive)
OVCAR-4
  GI50: > 100 µM (inactive)
OVCAR-5
  GI50: > 100 µM (inactive)
SF-268
  GI50: > 100 µM (inactive)
SF-295
  GI50: > 100 µM (inactive)
SK-MEL-5
  GI50: 10 µM (inactive)
TK-10
  GI50: > 100 µM (inactive)
U-251
  GI50: > 100 µM (inactive)

## Cc1ccc(C(=O)CC2(O)C(=O)Nc3c(C)cc(Cl)cc32)cc1 (stereo unspecified)
786-0
  GI50: > 100 µM (inactive)
ACHN
  GI50: > 100 µM (inactive)
HL-60
  GI50: 59.8 µM (inactive)
HOP-62
  GI50: > 100 µM (inactive)
HOP-92
  GI50: > 100 µM (inactive)
HT-29
  GI50: > 100 µM (inactive)
K562
  GI50: 86.5 µM (inactive)
LXFL 529
  GI50: > 100 µM (inactive)
Malme-3M
  GI50: > 100 µM (inactive)
NCI-H226
  GI50: > 100 µM (inactive)
OVCAR-4
  GI50: 35.7 µM (inactive)
OVCAR-5
  GI50: > 100 µM (inactive)
SF-268
  GI50: > 100 µM (inactive)
SF-295
  GI50: > 100 µM (inactive)
SK-MEL-5
  GI50: > 100 µM (inactive)
TK-10
  GI50: > 100 µM (inactive)
U-251
  GI50: > 100 µM (inactive)

## c1ccc(CSc2nc3ccccc3nc2-c2cccs2)cc1
786-0
  GI50: > 100 µM (inactive)
ACHN
  GI50: > 100 µM (inactive)
HL-60
  GI50: > 100 µM (inactive)
HOP-62
  GI50: > 100 µM (inactive)
HOP-92
  GI50: > 100 µM (inactive)
HT-29
  GI50: > 100 µM (inactive)
K562
  GI50: > 100 µM (inactive)
LXFL 529
  GI50: > 100 µM (inactive)
Malme-3M
  GI50: > 100 µM (inactive)
NCI-H226
  GI50: > 100 µM (inactive)
OVCAR-4
  GI50: > 100 µM (inactive)
OVCAR-5
  GI50: > 100 µM (inactive)
SF-268
  GI50: > 100 µM (inactive)
SF-295
  GI50: > 100 µM (inactive)
SK-MEL-5
  GI50: > 100 µM (inactive)
TK-10
  GI50: > 100 µM (inactive)
U-251
  GI50: > 100 µM (inactive)

## Cc1ccccc1NC(=O)c1cc(-c2ccc([N+](=O)[O-])cc2)nc(S)n1
786-0
  GI50: > 100 µM (inactive)
ACHN
  GI50: > 100 µM (inactive)
HL-60
  GI50: > 100 µM (inactive)
HOP-62
  GI50: > 100 µM (inactive)
HOP-92
  GI50: > 100 µM (inactive)
HT-29
  GI50: > 100 µM (inactive)
K562
  GI50: > 100 µM (inactive)
LXFL 529
  GI50: > 100 µM (inactive)
Malme-3M
  GI50: > 100 µM (inactive)
NCI-H226
  GI50: > 100 µM (inactive)
OVCAR-4
  GI50: > 100 µM (inactive)
OVCAR-5
  GI50: > 100 µM (inactive)
SF-268
  GI50: > 100 µM (inactive)
SF-295
  GI50: > 100 µM (inactive)
SK-MEL-5
  GI50: > 100 µM (inactive)
TK-10
  GI50: > 100 µM (inactive)
U-251
  GI50: > 100 µM (inactive)

## O=C(/C=C/c1ccc(O)c(O)c1)OC1C[C@@](O)(C(=O)O)C[C@@H](O)[C@H]1OC(=O)/C=C/c1ccc(O)c(O)c1 (stereo partly specified)
786-0
  GI50: > 100 µM (inactive)
ACHN
  GI50: > 100 µM (inactive)
HL-60
  GI50: > 100 µM (inactive)
HOP-62
  GI50: > 100 µM (inactive)
HOP-92
  GI50: > 100 µM (inactive)
HT-29
  GI50: > 100 µM (inactive)
K562
  GI50: > 100 µM (inactive)
LXFL 529
  GI50: > 100 µM (inactive)
Malme-3M
  GI50: > 100 µM (inactive)
NCI-H226
  GI50: > 100 µM (inactive)
OVCAR-4
  GI50: > 100 µM (inactive)
OVCAR-5
  GI50: > 100 µM (inactive)
SF-268
  GI50: > 100 µM (inactive)
SF-295
  GI50: > 100 µM (inactive)
SK-MEL-5
  GI50: > 100 µM (inactive)
TK-10
  GI50: > 100 µM (inactive)
U-251
  GI50: > 100 µM (inactive)

## COC(=O)C1=Cc2cc3c(cc2[C@H](c2ccc4c(c2)OCO4)C1C(=O)OC)OCO3 (stereo partly specified)
786-0
  GI50: > 100 µM (inactive)
ACHN
  GI50: 43.9 µM (inactive)
HL-60
  GI50: 65.6 µM (inactive)
HOP-62
  GI50: > 100 µM (inactive)
HOP-92
  GI50: 27.4 µM (inactive)
HT-29
  GI50: 36.2 µM (inactive)
K562
  GI50: 53.5 µM (inactive)
LXFL 529
  GI50: > 100 µM (inactive)
Malme-3M
  GI50: > 100 µM (inactive)
NCI-H226
  GI50: > 100 µM (inactive)
OVCAR-4
  GI50: 61.9 µM (inactive)
OVCAR-5
  GI50: > 100 µM (inactive)
SF-268
  GI50: > 100 µM (inactive)
SF-295
  GI50: 38.5 µM (inactive)
SK-MEL-5
  GI50: 46.6 µM (inactive)
TK-10
  GI50: > 100 µM (inactive)
U-251
  GI50: 61.4 µM (inactive)
